Data taken from ChEMBL document CHEMBL1201862, “PubChem BioAssay data set” (2004).
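Cells were grown in 96-well plates and exposed to each compound for 48 hours at five concentrations; endpoints were interpolated linearly between bracketing concentrations, or set to the highest concentration if not reached. Here, GI50 denotes the concentration required for 50% inhibition of growth.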 Activity calls are given as the source filed them. Cut-off read from the data, not from the text of the source: active = GI50 up to about 1.1 µM and inactive = higher.

Assays:
Assay in all cases: NCI-60 cell line screen, 48 h
786-0 = system: 786-0
A498 = system: A498
A549 = system: A549
ACHN = system: ACHN
BT-549 = system: BT-549
CAKI-1 = system: CAKI-1
CCRF-CEM = system: CCRF-CEM
COLO 205 = system: COLO 205
DU-145 = system: DU-145
EKVX = system: EKVX
HCC 2998 = system: HCC 2998
HCT-116 = system: HCT-116
HCT-15 = system: HCT-15
HL-60 = system: HL-60
HOP-62 = system: HOP-62
HOP-92 = system: HOP-92
HT-29 = system: HT-29
Hs-578T = system: Hs-578T
IGROV-1 = system: IGROV-1
K562 = system: K562
KM12 = system: KM12
LOX IMVI = system: LOX IMVI
M14 = system: M14
MCF7 = system: MCF7
MDA-MB-231 = system: MDA-MB-231
MDA-MB-435 = system: MDA-MB-435
MDA-N = system: MDA-N
MOLT-4 = system: MOLT-4
NCI-H23 = system: NCI-H23
NCI-H460 = system: NCI-H460
NCI-H522 = system: NCI-H522
NCI/ADR-RES = system: NCI/ADR-RES
OVCAR-3 = system: OVCAR-3
OVCAR-4 = system: OVCAR-4
OVCAR-5 = system: OVCAR-5
OVCAR-8 = system: OVCAR-8
PC-3 = system: PC-3
RXF 393 = system: RXF 393
SF-268 = system: SF-268
SF-295 = system: SF-295
SF-539 = system: SF-539
SK-MEL-28 = system: SK-MEL-28
SK-MEL-2 = system: SK-MEL-2
SK-MEL-5 = system: SK-MEL-5
SN12C = system: SN12C
SNB-19 = system: SNB-19
SNB-75 = system: SNB-75
SR = system: SR
SW-620 = system: SW-620
T47D = system: T47D
TK-10 = system: TK-10
U-251 = system: U-251
UACC-257 = system: UACC-257
UACC-62 = system: UACC-62
UO-31 = system: UO-31
Malme-3M = system: Malme-3M
NCI-H226 = system: NCI-H226
RPMI-8226 = system: RPMI-8226
SK-OV-3 = system: SK-OV-3

For `CC(C)N(C(=O)C12C3(C(=O)C(C)(C)C)C4C5(C#N)C3C1(C(=O)C(C)(C)C)C5C42C(=O)C(C)(C)C)C(C)C` (stereo not given), the GI50 (786-0) was > 100 µM (inactive), the GI50 (A498) was > 100 µM (inactive) and the GI50 (A549) was > 100 µM (inactive). For the same compound, the GI50 (ACHN) was > 100 µM (inactive), the GI50 (BT-549) was > 100 µM (inactive) and the GI50 (CAKI-1) was > 100 µM (inactive). For the same compound, the GI50 (CCRF-CEM) was > 100 µM (inactive), the GI50 (COLO 205) was > 100 µM (inactive) and the GI50 (DU-145) was > 100 µM (inactive). For the same compound, the GI50 (EKVX) was > 100 µM (inactive), the GI50 (HCC 2998) was > 100 µM (inactive) and the GI50 (HCT-116) was > 100 µM (inactive). The GI50 (HCT-15) was greater than 100 µM, the GI50 (HL-60) was > 100 µM (inactive) and the GI50 (HOP-62) was > 100 µM (inactive). The GI50 (HOP-92) was 66.2 µM (inactive), the GI50 (HT-29) was > 100 µM (inactive) and the GI50 (Hs-578T) was > 100 µM (inactive). For the same compound, the GI50 (IGROV-1) was > 100 µM (inactive), the GI50 (K562) was > 100 µM (inactive) and the GI50 (KM12) was > 100 µM (inactive). For the same compound, the GI50 (LOX IMVI) was > 100 µM (inactive), the GI50 (M14) was > 100 µM (inactive) and the GI50 (MCF7) was > 100 µM (inactive). The GI50 (MDA-MB-231) was > 100 µM (inactive), the GI50 (MDA-MB-435) was > 100 µM (inactive) and the GI50 (MDA-N) was > 100 µM (inactive). The GI50 (MOLT-4) was > 100 µM (inactive), the GI50 (NCI-H23) was > 100 µM (inactive) and the GI50 (NCI-H460) was > 100 µM (inactive). The GI50 (NCI-H522) was > 100 µM (inactive), the GI50 (NCI/ADR-RES) was > 100 µM (inactive) and the GI50 (OVCAR-3) was > 100 µM (inactive). The GI50 (OVCAR-4) was > 100 µM (inactive), the GI50 (OVCAR-5) was > 100 µM (inactive) and the GI50 (OVCAR-8) was > 100 µM (inactive). For the same compound, the GI50 (PC-3) was > 100 µM (inactive), the GI50 (RXF 393) was > 100 µM (inactive) and the GI50 (SF-268) was > 100 µM (inactive). The GI50 (SF-295) was > 100 µM (inactive), the GI50 (SF-539) was > 100 µM (inactive) and the GI50 (SK-MEL-28) was > 100 µM (inactive). For the same compound, the GI50 (SK-MEL-2) was > 100 µM (inactive), the GI50 (SK-MEL-5) was > 100 µM (inactive) and the GI50 (SN12C) was > 100 µM (inactive). The GI50 (SNB-19) was > 100 µM (inactive), the GI50 (SNB-75) was 14.1 µM (inactive) and the GI50 (SR) was > 100 µM (inactive). The GI50 (SW-620) was > 100 µM (inactive), the GI50 (T47D) was > 100 µM (inactive) and the GI50 (TK-10) was > 100 µM (inactive). For the same compound, the GI50 (U-251) was > 100 µM (inactive), the GI50 (UACC-257) was > 100 µM (inactive) and the GI50 (UACC-62) was > 100 µM (inactive). The GI50 (UO-31) was > 100 µM (inactive).
For `COC(=O)C(Cc1ccccc1)NC(=O)CCCNC(=O)OCc1ccccc1` (stereo not given), the GI50 (786-0) was > 100 µM (inactive), the GI50 (A549) was > 100 µM (inactive) and the GI50 (ACHN) was 33 µM (inactive). For the same compound, the GI50 (BT-549) was > 100 µM (inactive), the GI50 (CAKI-1) was > 100 µM (inactive) and the GI50 (CCRF-CEM) was 41 µM (inactive). For the same compound, the GI50 (COLO 205) was 77.4 µM (inactive), the GI50 (DU-145) was > 100 µM (inactive) and the GI50 (EKVX) was > 100 µM (inactive). For the same compound, the GI50 (HCC 2998) was > 100 µM (inactive), the GI50 (HCT-116) was > 100 µM (inactive) and the GI50 (HCT-15) was greater than 100 µM. For the same compound, the GI50 (HL-60) was 33.7 µM (inactive), the GI50 (HOP-62) was > 100 µM (inactive) and the GI50 (HOP-92) was 99.1 µM (inactive). The GI50 (HT-29) was > 100 µM (inactive), the GI50 (Hs-578T) was > 100 µM (inactive) and the GI50 (IGROV-1) was > 100 µM (inactive). For the same compound, the GI50 (K562) was > 100 µM (inactive), the GI50 (KM12) was > 100 µM (inactive) and the GI50 (LOX IMVI) was > 100 µM (inactive). For the same compound, the GI50 (M14) was 17.1 µM (inactive), the GI50 (MCF7) was > 100 µM (inactive) and the GI50 (MDA-MB-231) was > 100 µM (inactive). For the same compound, the GI50 (MDA-MB-435) was 86.1 µM (inactive), the GI50 (MDA-N) was 63.7 µM (inactive) and the GI50 (MOLT-4) was 29.2 µM (inactive). For the same compound, the GI50 (Malme-3M) was 7.33 µM (inactive), the GI50 (NCI-H226) was > 100 µM (inactive) and the GI50 (NCI-H23) was > 100 µM (inactive). The GI50 (NCI-H460) was > 100 µM (inactive), the GI50 (NCI-H522) was > 100 µM (inactive) and the GI50 (NCI/ADR-RES) was > 100 µM (inactive). The GI50 (OVCAR-3) was > 100 µM (inactive), the GI50 (OVCAR-4) was > 100 µM (inactive) and the GI50 (OVCAR-5) was > 100 µM (inactive). The GI50 (OVCAR-8) was > 100 µM (inactive), the GI50 (PC-3) was > 100 µM (inactive) and the GI50 (RPMI-8226) was 87.3 µM (inactive). For the same compound, the GI50 (RXF 393) was < 0.01 µM (active), the GI50 (SF-268) was > 100 µM (inactive) and the GI50 (SF-295) was > 100 µM (inactive). The GI50 (SK-MEL-28) was 48.2 µM (inactive), the GI50 (SK-MEL-5) was 22.4 µM (inactive) and the GI50 (SK-OV-3) was > 100 µM (inactive). For the same compound, the GI50 (SN12C) was > 100 µM (inactive), the GI50 (SNB-19) was > 100 µM (inactive) and the GI50 (SNB-75) was > 100 µM (inactive). The GI50 (SR) was 44.7 µM (inactive), the GI50 (SW-620) was > 100 µM (inactive) and the GI50 (T47D) was 71.3 µM (inactive). The GI50 (TK-10) was > 100 µM (inactive), the GI50 (U-251) was > 100 µM (inactive) and the GI50 (UACC-62) was 49.9 µM (inactive). For the same compound, the GI50 (UO-31) was > 100 µM (inactive).
